# Assay results: ChEMBL document CHEMBL1140201, “Insights into ligand-elicited activation of human constitutive androstane receptor based on novel agonists and three-dimensional quantitative structure-activity relationship” (J Med Chem, 2008)
# Experiments:
# Format in all cases: cell-based
# [1] = target: T1, CAR (NR1I3) ligand-binding domain, wild type (Homo sapiens, UniProt Q14994); experiment: Activation of human CAR-LBD expressed in human C3A cells at 10 uM after 24 hrs by GAL4-dependent luciferase reporter gene assay relative to control; conditions: C3A cells expressing human CAR-LBD, read-out: FC
# T1 sequence (Q14994 whole entry): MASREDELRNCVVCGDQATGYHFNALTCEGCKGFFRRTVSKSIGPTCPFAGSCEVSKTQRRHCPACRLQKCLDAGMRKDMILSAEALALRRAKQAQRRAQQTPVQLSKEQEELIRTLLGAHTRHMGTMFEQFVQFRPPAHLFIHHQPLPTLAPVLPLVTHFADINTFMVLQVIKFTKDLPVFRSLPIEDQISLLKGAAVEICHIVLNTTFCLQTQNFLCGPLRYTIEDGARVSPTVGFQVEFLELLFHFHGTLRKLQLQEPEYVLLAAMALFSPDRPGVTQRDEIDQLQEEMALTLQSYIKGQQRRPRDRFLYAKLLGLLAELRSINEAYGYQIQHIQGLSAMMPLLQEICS
# [2] = target: T2, CAR (NR1I3) Phe161Ala mutant (Homo sapiens, UniProt Q14994, F161A); experiment: Activation of human CAR Phe161Ala mutant expressed in human C3A cells at 10 uM after 24 hrs by GAL4-dependent luciferase reporter gene assay relative to control; conditions: C3A cells expressing human CAR Phe161Ala mutant, read-out: FC
# T2 sequence (Q14994 whole entry F161A, the tested form may be a part): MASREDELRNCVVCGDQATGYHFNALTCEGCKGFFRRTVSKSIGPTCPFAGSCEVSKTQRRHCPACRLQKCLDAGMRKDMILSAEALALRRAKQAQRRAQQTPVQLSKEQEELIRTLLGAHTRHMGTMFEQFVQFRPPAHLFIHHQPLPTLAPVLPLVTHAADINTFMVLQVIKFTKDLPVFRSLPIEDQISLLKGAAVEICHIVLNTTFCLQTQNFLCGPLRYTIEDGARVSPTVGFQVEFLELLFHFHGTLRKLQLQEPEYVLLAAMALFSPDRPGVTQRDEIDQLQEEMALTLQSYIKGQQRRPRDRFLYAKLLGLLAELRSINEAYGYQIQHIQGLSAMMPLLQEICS
# [3] = target: T3, CAR (NR1I3) Ile164Ala mutant (Homo sapiens, UniProt Q14994, I164A); experiment: Activation of human CAR Ile164Ala mutant expressed in human C3A cells at 10 uM after 24 hrs by GAL4-dependent luciferase reporter gene assay relative to control; conditions: C3A cells expressing human CAR Ile164Ala mutant, read-out: FC
# T3 sequence (Q14994 whole entry I164A, the tested form may be a part): as the sequence (Q14994 whole entry F161A, the tested form may be a part) above, with A161F, I164A counted along it
# [4] = target: T4, CAR (NR1I3) His203Ala mutant (Homo sapiens, UniProt Q14994, H203A); experiment: Activation of human CAR His203Ala mutant expressed in human C3A cells at 10 uM after 24 hrs by GAL4-dependent luciferase reporter gene assay relative to control; conditions: C3A cells expressing human CAR His203Ala mutant, read-out: FC
# T4 sequence (Q14994 whole entry H203A, the tested form may be a part): as the sequence (Q14994 whole entry F161A, the tested form may be a part) above, with A161F, H203A counted along it
# [5] = target: T5, CAR (NR1I3) Asn165Ala mutant (Homo sapiens, UniProt Q14994, N165A); experiment: Activation of human CAR Asn165Ala mutant expressed in human C3A cells at 10 uM after 24 hrs by GAL4-dependent luciferase reporter gene assay relative to control; conditions: C3A cells expressing human CAR Asn165Ala mutant, read-out: FC
# T5 sequence (Q14994 whole entry N165A, the tested form may be a part): as the sequence (Q14994 whole entry F161A, the tested form may be a part) above, with A161F, N165A counted along it
# [6] = target: T1, CAR (NR1I3) ligand-binding domain, wild type; experiment: Activation of human CAR-LBD expressed in human C3A cells at 4 uM after 24 hrs by GAL4-dependent luciferase reporter gene assay relative to control; conditions: C3A cells expressing human CAR-LBD, read-out: FC
# [7] = target: T2, CAR (NR1I3) Phe161Ala mutant; experiment: Activation of human CAR Phe161Ala mutant expressed in human C3A cells at 4 uM after 24 hrs by GAL4-dependent luciferase reporter gene assay relative to control; conditions: C3A cells expressing human CAR Phe161Ala mutant, read-out: FC
# [8] = target: T3, CAR (NR1I3) Ile164Ala mutant; experiment: Activation of human CAR Ile164Ala mutant expressed in human C3A cells at 4 uM after 24 hrs by GAL4-dependent luciferase reporter gene assay relative to control; conditions: C3A cells expressing human CAR Ile164Ala mutant, read-out: FC
# [9] = target: T5, CAR (NR1I3) Asn165Ala mutant; experiment: Activation of human CAR Asn165Ala mutant expressed in human C3A cells at 4 uM after 24 hrs by GAL4-dependent luciferase reporter gene assay relative to control; conditions: C3A cells expressing human CAR Asn165Ala mutant, read-out: FC
# [10] = target: T4, CAR (NR1I3) His203Ala mutant; experiment: Activation of human CAR His203Ala mutant expressed in human C3A cells at 4 uM after 24 hrs by GAL4-dependent luciferase reporter gene assay relative to control; conditions: C3A cells expressing human CAR His203Ala mutant, read-out: FC
SMILES,"fold induction at 24 h, 10 µM [1]","fold induction at 24 h, 10 µM [2]","fold induction at 24 h, 10 µM [3]","fold induction at 24 h, 10 µM [4]","fold induction at 24 h, 10 µM [5]","fold induction at 24 h, 4 µM [6]","fold induction at 24 h, 4 µM [7]","fold induction at 24 h, 4 µM [8]","fold induction at 24 h, 4 µM [9]","fold induction at 24 h, 4 µM [10]"
CCC(=O)NCC(=O)N1CCCN1C(=O)Cc1c(C)[nH]c2ccccc12,2.39,0.96,1.08,2.06,1.23,,,,,
O=S(=O)(Nc1nc2c(s1)CCCC2)c1ccc(Br)s1,1.32,1,1.06,1.18,1.01,,,,,
CCCCCNC(=O)Nc1c(C)cccc1C(C)(C)C,2.6,0.97,1.24,4.17,1.76,,,,,
O=P(Oc1ccccc1)(Oc1ccccc1)Oc1ccccc1 [TRIPHENYL PHOSPHATE],3.96,0.82,6.42,2.79,3.01,,,,,
CC(C)c1ccc(OP(=O)(Oc2ccc(C(C)C)cc2)Oc2ccc(C(C)C)cc2)cc1,2.45,1.06,1.67,6.76,2.66,,,,,
O=C(NCC1CCCCC1)N[C@H]1C[C@@H]1c1ccccc1,2.95,1.21,2.86,2.16,1.14,,,,,
Cn1ccnc1CN1CCCN(C(=O)Nc2ccc(F)c(F)c2F)CC1,2.23,1.24,1.36,1.49,1.98,,,,,
CSCCN1C(=O)CS[C@@H]1c1ccc(Br)s1,2.97,0.97,1.3,1.28,1.87,,,,,
Cc1cccc(NC(=O)N2CCN(c3cccc(C)c3)[C@H](C)C2)c1,1.45,1.38,0.84,1.43,1.08,,,,,
CSc1ccccc1NS(=O)(=O)c1cc(Cl)sc1Cl,3.68,0.94,1.66,1.84,5.18,,,,,
CCc1cccc(NC(=O)N(CC)[C@H](C)Cc2ccc(OC)cc2)c1,1.86,0.92,1.32,1.88,1.72,,,,,
CCOc1ccccc1CCCNC(=O)Nc1c(CC)cccc1CC,4.88,1.52,1.48,1.03,0.81,,,,,
CCOc1ccccc1N1CCN(Cc2ccc(C)s2)CC1,2.7,1.01,1.49,1.9,2.2,,,,,
O=C1CS[C@H](c2ccncc2)N1Cc1nc2ccccc2[nH]1,1.4,1.3,1.13,1.24,1.19,,,,,
Cc1ccc(NC(=O)NC2CCC2)cc1C,1.37,1.15,1.37,1.53,1.33,,,,,
COc1ccc(OC)c(CN2C(=O)CS[C@@H]2c2ccc(F)c(Br)c2)c1,3.87,1.17,1.87,2.83,1.13,,,,,
CN(C)c1ccc(NS(=O)(=O)c2ccc(Br)cc2)cc1,2.03,1.12,2.33,2.26,0.99,,,,,

# Continued, values first:
"fold induction at 24 h, 10 µM [1]","fold induction at 24 h, 10 µM [2]","fold induction at 24 h, 10 µM [3]","fold induction at 24 h, 10 µM [4]","fold induction at 24 h, 10 µM [5]","fold induction at 24 h, 4 µM [6]","fold induction at 24 h, 4 µM [7]","fold induction at 24 h, 4 µM [8]","fold induction at 24 h, 4 µM [9]","fold induction at 24 h, 4 µM [10]",SMILES
3.8,1.22,1.56,3.68,1.82,,,,,,CCCc1ccc(S(=O)(=O)N(Cc2ccccc2)c2ccc(OC)cc2)cc1
5.22,1.3,6.66,1.52,1.05,,,,,,C[C@@H]1Cc2ccccc2N1S(=O)(=O)c1cccc2nsnc12
1.63,0.92,2.26,3.21,1.17,,,,,,O=S(=O)(NCCSCc1ccccc1)c1ccc(Cl)cc1
3.28,0.95,1.42,1.86,0.53,,,,,,O=S(=O)(NCC(c1ccccc1)c1ccccc1)c1cccs1
1.76,1.57,1.54,1.43,1.7,,,,,,O=S(=O)(NCc1csc2ccccc12)c1cccs1
4.09,4.4,6.61,5.44,2.07,,,,,,CCCCN(c1ccccc1)S(=O)(=O)c1cccc2ccccc12
4.17,1.53,3.74,3.48,3.64,,,,,,Cc1cccc(NC(=O)N(Cc2ccccc2)Cc2ccccc2)c1
7.92,0.94,1.55,2.62,1,,,,,,CCc1ccc(S(=O)(=O)Nc2ccccc2C(C)(C)C)cc1
4.47,3.62,4.57,10.1,2.75,,,,,,CCc1cc(Br)ccc1S(=O)(=O)Nc1ccccc1[C@@H](C)CC
,,,,,4.34,13.1,21.3,4.47,0.21,Clc1ccccc1C(c1ccccc1)(c1ccccc1)n1ccnc1 [CLOTRIMAZOLE]
6.35,1.56,1.42,4.22,1.22,,,,,,CCN(c1ccccc1)S(=O)(=O)c1ccc(C(C)(C)CC)cc1
5.5,1.08,4.14,3.29,1.1,,,,,,CCN(CC)c1ccc(NS(=O)(=O)c2ccc(Cl)cc2)c(C)c1
2.51,3.36,2.89,1.92,1.19,,,,,,CCc1cc(Br)ccc1S(=O)(=O)NCc1ccccc1
